What all share (type): cell-based
In one experiment the test system is colon cancer (SW-620). Nature of the experiment: Anticancer activity assay (WST-8 cell growth), SW-620. Particulars: read-out: IC50 (nM) SW-620. Here is the method: (§1) The compounds of the present invention were assayed for inhibitory activity against 7 cancer cell lines as breast cancer (BT-474), human epithelial cancer (A-431), non-small cell lung cancer (NCI-H460), colon cancer (HT-29), colon cancer (SW-620), breast cancer (MDA-MB-231) and breast cancer (MCF-7).
(§2) Briefly, a suspension of each cancer cell line was serially diluted, and plated at a density of 2˜3×10^3 cells/well into 96-well microplates, followed by incubation at 37° C. for 4 day in a 5% CO2 atmosphere. Cell growth in a monolayer was measured using WST-8 reagemt (Dojindo, Japan).
(§3) IC50 values of the compounds against the cancer cell lines were calculated as compound concentrations at which the cells were grown by 50% OD of the control.

The test system of another experiment is breast cancer (MCF-7). Nature of the experiment: Anticancer activity assay (WST-8 cell growth), MCF-7. Particulars: read-out: IC50 (nM) MCF-7. Here is the method:
as §1, §2, §3
On the technique in general: Tetrazolium assays rely on reduction of a dye to a coloured formazan, in cell work by metabolically active cells.

The subject of experiment [1] is non-small cell lung cancer (NCI-H460). In words: Anticancer activity assay (WST-8 cell growth), NCI-H460. Particulars: read-out: IC50 (nM) NCI-H460. As for the experimental part: as §1, §2, §3
A further experiment deals with colon cancer (HT-29). In words: Anticancer activity assay (WST-8 cell growth), HT-29. Particulars: read-out: IC50 (nM) HT-29. Here is the method: as §1, §2, §3
For experiment [2], the system named is breast cancer (MDA-MB-231). In words: Anticancer activity assay (WST-8 cell growth), MDA-MB-231. The following applies: read-out: IC50 (nM) MDA-MB-231. As for the experimental part:
as §1, §2, §3

The test system of the next experiment is breast cancer (BT-474). In words: Anticancer activity assay (WST-8 cell growth), BT-474. The following applies: Homo sapiens, read-out: IC50 (nM) BT-474. In outline: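 Cells seeded at 2˜3×10^3 per well and grown with compound at 37° C, 5% CO2 for 4 days. Monolayer growth read with WST-8; IC50 taken as concentration giving 50% of control OD.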
Experiment [3] has as its system human epithelial cancer (A-431). In words: Anticancer activity assay (WST-8 cell growth), A-431. Particulars: 96 h, A-431 cells, 4 day incubation, WST-8, read-out: IC50 (nM) A-431. As for the experimental part: as §1, §2, §3

The values below come from patent US9278996B2, “Dolastatin-10 derivative, method of producing the same and anticancer drug composition containing the same” (CELLTRION, INC., priority 2012, dated 2016).

Like-named read-outs stand apart in the source and are kept apart here.

One may read the IC50 as the concentration needed to halve the response being measured. `CC[C@H](C)[C@@H]([C@@H](CC(=O)N1C[C@@H](OC)C[C@H]1[C@H](OC)[C@@H](C)C(=O)NCCc1ccccc1)OC)N(C)C(=O)[C@@H](NC(=O)[C@@H](NC)C(C)C)C(C)C` [Compound I-33, (2S)—N-((3R,4S)-3-methoxy-1-((2S,45)-4-methoxy-2-((1R,2R)-1-methoxy-2-methyl-3-oxo-3-(phenethylamino)propyl)pyrrolidin-1-yl)-5-methyl-1-oxoheptan-4-yl)-N,3-dimethyl-2-((S)-3-methyl-2-(methylamino)butaneamido)butanamide]: the IC50 came to 5.49 nM with colon cancer (SW-620) (Homo sapiens, SW-620, 96 h); 1.82 nM in the experiment on breast cancer (MCF-7) (Homo sapiens, MCF7, 96 h); 9.4 nM in experiment [1] (Homo sapiens, NCI-H460, 96 h); 2.82 nM in the experiment on colon cancer (HT-29) (Homo sapiens, HT-29, 96 h); 2.23 nM in experiment [2] (Homo sapiens, MDA-MB-231, 96 h); 0.68 nM with breast cancer (BT-474) (BT-474, 96 h).
Regarding `CC[C@H](C)[C@@H]([C@@H](CC(=O)N1C[C@H](OC)C[C@H]1[C@H](OC)[C@@H](C)C(=O)NCC(O)c1ccccc1)OC)N(C)C(=O)[C@@H](NC(=O)[C@@H](NC)C(C)C)C(C)C` (stereo partly drawn) [Compound I-35, (2S)—N-((3R,4S)-1-((2S,4R)-2-((1R,2R)-3-(2-(2-hydroxy-2-phenylethyl)amino)-1-methoxy-2-methyl-3-oxopropyl)-4-methoxypyrrolidin-1-yl)-3-methoxy-5-methyl-1-oxoheptan-4-yl)-N,3-dimethyl-2-((S)-3-methyl-2-(methylamino)butaneamido)butanamide], the IC50 in the experiment with colon cancer (SW-620) (Homo sapiens, SW-620, 96 h) came to 2.1 nM; in experiment [1] (Homo sapiens, NCI-H460, 96 h) it was 1.5 nM; in the experiment with colon cancer (HT-29) (Homo sapiens, HT-29, 96 h), 4.2 nM; with breast cancer (BT-474) (BT-474, 96 h) it was 0.23 nM.
For `COc1cccc2c1C(=O)c1c(O)c3c(c(O)c1C2=O)C[C@@](O)(C(=O)CO)C[C@@H]3O[C@H]1C[C@H](N)[C@H](O)[C@H](C)O1` [Doxorubcin, reference compound], the 50% inhibitory concentration (IC50) in the experiment with colon cancer (SW-620) (SW-620 cells, 4 day incubation, WST-8) was found to be 290 nM; in the experiment with breast cancer (MCF-7) (MCF-7 cells, 4 day incubation, WST-8), 460 nM; in experiment [1] (NCI-H460 cells, 4 day incubation, WST-8), 150 nM; in the experiment on colon cancer (HT-29) (HT-29 cells, 4 day incubation, WST-8), 1.81 nM; in experiment [2] (MDA-MB-231 cells, 4 day incubation, WST-8), 850 nM.
Take `CC(=O)O[C@H]1C(=O)[C@@]2(C)[C@H]([C@H](OC(=O)c3ccccc3)[C@]3(O)C[C@H](OC(=O)[C@H](O)[C@@H](NC(=O)c4ccccc4)c4ccccc4)C(C)=C1C3(C)C)[C@]1(OC(C)=O)CO[C@@H]1C[C@@H]2O` [Paclitaxel, reference compound]: the IC50 with colon cancer (SW-620) (Homo sapiens, 96 h, SW-620 cells, 4 day incubation, WST-8) was determined as 26.8 nM; in the experiment on breast cancer (MCF-7) (Homo sapiens, MCF7, 96 h, MCF-7 cells, 4 day incubation, WST-8), 27.1 nM; in experiment [1] (Homo sapiens, 96 h, NCI-H460 cells, 4 day incubation, WST-8), 26.8 nM; in the experiment with colon cancer (HT-29) (Homo sapiens, 96 h, HT-29 cells, 4 day incubation, WST-8) it was 19.5 nM; in experiment [3] it was 442 nM; in experiment [2] (Homo sapiens, 96 h, MDA-MB-231 cells, 4 day incubation, WST-8), 90 nM. Besides, the concentration for half-maximal inhibition (IC50) with breast cancer (BT-474) (96 h, BT-474 cells, 4 day incubation, WST-8) came to 14.4 nM.
